Measured values as given in the NIST ThermoML archive (doi:10.1021/je050134y).
± gives the expanded uncertainty stated by the source.

Experiment: activity coefficient (dimensionless); of the first substance listed, at infinite dilution; xn = mol fraction of the nth substance listed
Details: 298 K; 101.3 kPa; Liquid; Chromatography; x1 = 0

Row | Structure (SMILES) | activity coefficient
1 | CCCCO [butan-1-ol] + CCCCCCCC[n+]1ccn(C)c1.F[B-](F)(F)F | 2.32 ± 0.16
2 | C=CCCCCCCCC [1-decene] + CCCCCCCC[n+]1ccn(C)c1.F[B-](F)(F)F | 21.4 ± 1.5
3 | CCCCCCCCC [nonane] + CCCCCCCC[n+]1ccn(C)c1.F[B-](F)(F)F | 28.4 ± 1.9
4 | C=CCCCCCCC [1-nonene] + CCCCCCCC[n+]1ccn(C)c1.F[B-](F)(F)F | 16.5 ± 1.1
5 | C=CCCCCCCCCC [1-undecene] + CCCCCCCC[n+]1ccn(C)c1.F[B-](F)(F)F | 25.8 ± 1.8
6 | CCO [ethanol] + CCCCCCCC[n+]1ccn(C)c1.F[B-](F)(F)F | 1.75 ± 0.12
7 | C=CCCCCCCCCCC [1-dodecene] + CCCCCCCC[n+]1ccn(C)c1.F[B-](F)(F)F | 32.7 ± 2.2
8 | CCCCCC [hexane] + CCCCCCCC[n+]1ccn(C)c1.F[B-](F)(F)F | 12.4 ± 0.8
9 | CCCCC [pentane] + CCCCCCCC[n+]1ccn(C)c1.F[B-](F)(F)F | 9.07 ± 0.62
10 | C1=CCCC=C1 [1,3-cyclohexadiene] + CCCCCCCC[n+]1ccn(C)c1.F[B-](F)(F)F | 2.69 ± 0.18
11 | C=CCCC [1-pentene] + CCCCCCCC[n+]1ccn(C)c1.F[B-](F)(F)F | 5.08 ± 0.35
12 | C=CCCCCCC [oct-1-ene] + CCCCCCCC[n+]1ccn(C)c1.F[B-](F)(F)F | 13.1 ± 0.9
13 | CCCCCCCC [octane] + CCCCCCCC[n+]1ccn(C)c1.F[B-](F)(F)F | 22 ± 1.5
14 | C=CCCCC [hex-1-ene] + CCCCCCCC[n+]1ccn(C)c1.F[B-](F)(F)F | 7.06 ± 0.48
15 | CCCCCCC [heptane] + CCCCCCCC[n+]1ccn(C)c1.F[B-](F)(F)F | 16 ± 1.1
16 | CCCCCO [pentan-1-ol] + CCCCCCCC[n+]1ccn(C)c1.F[B-](F)(F)F | 2.38 ± 0.16
17 | CO [methanol] + CCCCCCCC[n+]1ccn(C)c1.F[B-](F)(F)F | 1.07 ± 0.07
18 | CCCCCCCCCCC [undecane] + CCCCCCCC[n+]1ccn(C)c1.F[B-](F)(F)F | 60.9 ± 4.2
19 | CCCCCCO [hexan-1-ol] + CCCCCCCC[n+]1ccn(C)c1.F[B-](F)(F)F | 2.58 ± 0.18
20 | C=CCCCCC [1-heptene] + CCCCCCCC[n+]1ccn(C)c1.F[B-](F)(F)F | 9.76 ± 0.67
21 | CCCCCCCCCC [decane] + CCCCCCCC[n+]1ccn(C)c1.F[B-](F)(F)F | 36.4 ± 2.5
22 | CCCO [propan-1-ol] + CCCCCCCC[n+]1ccn(C)c1.F[B-](F)(F)F | 2.18 ± 0.15
23 | CCCCCCCCCCCC [dodecane] + CCCCCCCC[n+]1ccn(C)c1.F[B-](F)(F)F | 77.9 ± 5.3
